Assay: Pharmacokinetic profile after single oral, intranasal and intravenous betahistine in beagle dogs, Example 5
Format: in vivo
Details: beagle, dog, in vivo; for concentration at 6 h / concentration at 24 h / concentration at 0 h / concentration at 5 min / concentration at 0.167 h / concentration at 0.333 h / concentration at 0.5 h / concentration at 1 h / concentration at 2 h / concentration at 3 h: Betahistine Plasma Concentration
Experimental: In this study, the pharmacokinetic profile of betahistine was evaluated after a single dose administration of betahistine in male and female beagle dogs (age 5-7 months; weight of 5-11 kg, within a range of 3 kg for each sex) for three routes of administration: oral, intranasal, and intravenous.
On Day 1 of the study, betahistine (BH) was delivered orally at a dose of 12 mg/kg, 24 mg/kg, or 48 mg/kg. Each treatment group comprised 8 animals (4 males and 4 females). For pharmacokinetic assessment, plasma samples were collected prior to dosing, and then at 5, 10, 20 and 30 min, 1, 2, 3, 6, 24 hours after dosing.
On Day 8 of the study, the animals that received oral BH at a dose of 12 mg/kg were administered the test betahistine composition intranasally at a dose of 40 mg betahistine dihydrochloride; the animals that received oral BH at a dose of 24 mg/kg were administered the test betahistine composition intranasally at a dose of 80 mg betahistine dihydrochloride; and the animals that received oral BH at a dose of 48 mg/kg were administered the test betahistine composition intranasally at a dose of 120 mg betahistine dihydrochloride. The test betahistine composition was delivered intranasally in a single dose via an Aptar nasal spray pump device at a total dose level of 40, 80 and 120 mg of betahistine dihydrochloride. Plasma samples were collected prior to dosing, and then at 5, 10, 20 and 30 min, 1, 2, 3, 6, 24 hours after dosing.
On Day 15 of the study, the animals that received oral BH at a dose of 12 mg/kg and the test betahistine composition intranasally at a dose of 40 mg betahistine dihydrochloride were administered a bolus intravenous injection of betahistine at a dose of 0.44 mg/kg. Plasma samples were collected prior to dosing, and then at 5, 10, 20 and 30 min, 1, 2, 3, 6, 24 hours after dosing.
Betahistine 13CD3 dihydrochloride and 2-pyridylacetic acid-D4 hydrochloride were used as respective internal standards. The calibration range for betahistine was 0.05-250 ng/mL and for 2-PAA 2.00-3000 ng/mL using a plasma sample volume of 0.50 mL.
For determination of betahistine, the method involved liquid-liquid extraction, for 2-PAA, the method involved protein precipitation. Plasma samples were prepared for betahistine by extraction under basic conditions with an organic solvent, then the organic phase was dried, reconstituted and transferred for LC/MS-MS analysis. […] Sample analysis was performed using reversed phase chromatography.

[1] = male, inhaled or intranasal, 5 mg/kg
[2] = male, inhaled or intranasal, 9.8 mg/kg
[3] = male, inhaled or intranasal, 15.8 mg/kg

CNCCc1ccccn1 [betahistine]
concentration at 6 h (female, po, 24 mg/kg): 0.342 ng/mL
concentration at 24 h (female, po, 24 mg/kg): 0 ng/mL
AUC(0-6)/D (female, po, 48 mg/kg): 1.61 ± 0.528 hr*ng/mL/(mg/kg)
AUC(0-inf) (female, po, 48 mg/kg): 69.2 ± 23.3 ng·h/mL
Cmax (female, po, 48 mg/kg): 33.5 ± 9.11 ng/mL
Cmax/D (female, po, 48 mg/kg): 0.697 ± 0.190 ng/mL/(mg/kg)
Oral AUC/dose (female, po, 48 mg/kg): 1.61 (h · ng/mL)/(mg/kg)
Tmax (female, po, 48 mg/kg): 60 min
half-life (female, po, 48 mg/kg): 35.9 min
AUC(0-t) (female, po, 48 mg/kg, AUC(0-6)): 77.5 ± 25.4 ng·h/mL
AUC(0-t) (female, po, 48 mg/kg, AUC(0-t)): 77.5 ± 25.4 ng·h/mL
concentration at 0 h (female, po, 48 mg/kg): 0 ng/mL
concentration at 5 min (female, po, 48 mg/kg): 9.87 ng/mL
concentration at 0.167 h (female, po, 48 mg/kg): 9.24 ng/mL
concentration at 0.333 h (female, po, 48 mg/kg): 11.5 ng/mL
concentration at 0.5 h (female, po, 48 mg/kg): 19.4 ng/mL
concentration at 1 h (female, po, 48 mg/kg): 32.8 ng/mL
concentration at 2 h (female, po, 48 mg/kg): 21.3 ng/mL
concentration at 3 h (female, po, 48 mg/kg): 10.1 ng/mL
concentration at 6 h (female, po, 48 mg/kg): 0.64 ng/mL
concentration at 24 h (female, po, 48 mg/kg): 0 ng/mL
AUC(0-inf) [1]: 131 ng·h/mL
AUC(0-t)/D [1]: 36.4 ± 24.4 hr*ng/mL/(mg/kg)
Cmax [1]: 598 ng/mL
Cmax/D [1]: 120 ± 90.1 ng/mL/(mg/kg)
Intranasal AUC/dose [1]: 36.4 (h · ng/mL)/(mg/kg)
Tmax [1]: 10.2 min
AUC(0-t) (male, inhaled or intranasal, 5 mg/kg, AUC(0-6)): 178 ± 122 ng·h/mL
AUC(0-t) (male, inhaled or intranasal, 5 mg/kg, AUC(0-t)): 182 ± 122 ng·h/mL
AUC(0-inf) [2]: 202 ± 156 ng·h/mL
AUC(0-t)/D [2]: 17.5 ± 14.3 hr*ng/mL/(mg/kg)
Cmax [2]: 735 ng/mL
Cmax/D [2]: 75.0 ± 56.9 ng/mL/(mg/kg)
Intranasal AUC/dose [2]: 17.5 (h · ng/mL)/(mg/kg)
Tmax [2]: 7.8 min
AUC(0-t) (male, inhaled or intranasal, 9.8 mg/kg, AUC(0-6)): 168 ± 140 ng·h/mL
AUC(0-t) (male, inhaled or intranasal, 9.8 mg/kg, AUC(0-t)): 172 ± 140 ng·h/mL
AUC(0-t)/D [3]: 12.6 ± 4.97 hr*ng/mL/(mg/kg)
Cmax [3]: 765 ng/mL
Cmax/D [3]: 48.4 ± 23.7 ng/mL/(mg/kg)
Intranasal AUC/dose [3]: 12.6 (h · ng/mL)/(mg/kg)
Tmax [3]: 7.8 min
AUC(0-t) (male, inhaled or intranasal, 15.8 mg/kg, AUC(0-6)): 194 ± 79.8 ng·h/mL
AUC(0-t) (male, inhaled or intranasal, 15.8 mg/kg, AUC(0-t)): 199 ± 78.5 ng·h/mL
AUC(0-inf) (male, iv, 0.44 mg/kg): 18.4 ng·h/mL
AUC(0-t)/D (male, iv, 0.44 mg/kg): 44.3 ± 11.5 hr*ng/mL/(mg/kg)
Cmax (male, iv, 0.44 mg/kg): 58.2 ng/mL
Cmax/D (male, iv, 0.44 mg/kg): 132 ng/mL/(mg/kg)
Tmax (male, iv, 0.44 mg/kg): 4.8 min
Vd (male, iv, 0.44 mg/kg): 32.1 L/kg
clearance (male, iv, 0.44 mg/kg): 398 mL/min/kg
half-life (male, iv, 0.44 mg/kg): 55.8 min
AUC(0-t) (male, iv, 0.44 mg/kg, AUC(0-6)): 19.5 ng·h/mL
AUC(0-t) (male, iv, 0.44 mg/kg, AUC(0-t)): 19.5 ng·h/mL
concentration at 0 h (male, iv, 0.44 mg/kg): 0.11 ng/mL
concentration at 5 min (male, iv, 0.44 mg/kg): 58.2 ng/mL
concentration at 0.167 h (male, iv, 0.44 mg/kg): 29.1 ng/mL
concentration at 0.333 h (male, iv, 0.44 mg/kg): 8.06 ng/mL
concentration at 0.5 h (male, iv, 0.44 mg/kg): 5.57 ng/mL
concentration at 1 h (male, iv, 0.44 mg/kg): 0.349 ng/mL
concentration at 2 h (male, iv, 0.44 mg/kg): 0.993 ng/mL
concentration at 3 h (male, iv, 0.44 mg/kg): 0.081 ng/mL
concentration at 6 h (male, iv, 0.44 mg/kg): 1.05 ng/mL
concentration at 24 h (male, iv, 0.44 mg/kg): 0 ng/mL
AUC(0-6)/D (male, po, 12 mg/kg): 1.04 ± 0.168 hr*ng/mL/(mg/kg)
AUC(0-inf) (male, po, 12 mg/kg): 13.3 ng·h/mL
Cmax (male, po, 12 mg/kg): 18.9 ± 9.99 ng/mL
Cmax/D (male, po, 12 mg/kg): 1.58 ± 0.833 ng/mL/(mg/kg)
Oral AUC/dose (male, po, 12 mg/kg): 1.04 (h · ng/mL)/(mg/kg)
Tmax (male, po, 12 mg/kg): 30 min
half-life (male, po, 12 mg/kg): 18.8 min
AUC(0-t) (male, po, 12 mg/kg, AUC(0-6)): 13 ± 2.23 ng·h/mL
AUC(0-t) (male, po, 12 mg/kg, AUC(0-t)): 12.5 ± 2.02 ng·h/mL
concentration at 0 h (male, po, 12 mg/kg): 0 ng/mL
concentration at 5 min (male, po, 12 mg/kg): 1.35 ng/mL
concentration at 0.167 h (male, po, 12 mg/kg): 2.73 ng/mL
concentration at 0.333 h (male, po, 12 mg/kg): 5.8 ng/mL
concentration at 0.5 h (male, po, 12 mg/kg): 18.9 ng/mL
concentration at 1 h (male, po, 12 mg/kg): 5.65 ng/mL
concentration at 2 h (male, po, 12 mg/kg): 0.457 ng/mL
concentration at 3 h (male, po, 12 mg/kg): 0.036 ng/mL
concentration at 6 h (male, po, 12 mg/kg): 0.016 ng/mL
concentration at 24 h (male, po, 12 mg/kg): 0.021 ng/mL
AUC(0-6)/D (male, po, 24 mg/kg): 1.44 ± 0.714 hr*ng/mL/(mg/kg)
AUC(0-inf) (male, po, 24 mg/kg): 34.6 ± 17.1 ng·h/mL
Cmax (male, po, 24 mg/kg): 38.3 ± 28.1 ng/mL
Cmax/D (male, po, 24 mg/kg): 1.60 ± 1.17 ng/mL/(mg/kg)
Oral AUC/dose (male, po, 24 mg/kg): 1.44 (h · ng/mL)/(mg/kg)
Tmax (male, po, 24 mg/kg): 60 min
half-life (male, po, 24 mg/kg): 47.1 min
AUC(0-t) (male, po, 24 mg/kg, AUC(0-6)): 34.5 ± 17.2 ng·h/mL
AUC(0-t) (male, po, 24 mg/kg, AUC(0-t)): 34.5 ± 17.1 ng·h/mL
concentration at 0 h (male, po, 24 mg/kg): 0 ng/mL
concentration at 5 min (male, po, 24 mg/kg): 4.69 ng/mL
concentration at 0.167 h (male, po, 24 mg/kg): 5.05 ng/mL
concentration at 0.333 h (male, po, 24 mg/kg): 23.9 ng/mL
concentration at 0.5 h (male, po, 24 mg/kg): 17.8 ng/mL
concentration at 1 h (male, po, 24 mg/kg): 26.9 ng/mL
concentration at 2 h (male, po, 24 mg/kg): 2.08 ng/mL
concentration at 3 h (male, po, 24 mg/kg): 0.611 ng/mL
concentration at 6 h (male, po, 24 mg/kg): 0.078 ng/mL
concentration at 24 h (male, po, 24 mg/kg): 0 ng/mL
AUC(0-6)/D (male, po, 48 mg/kg): 2.73 ± 0.590 hr*ng/mL/(mg/kg)
AUC(0-inf) (male, po, 48 mg/kg): 133 ng·h/mL
Cmax/D (male, po, 48 mg/kg): 2.13 ± 0.628 ng/mL/(mg/kg)
Oral AUC/dose (male, po, 48 mg/kg): 2.73 (h · ng/mL)/(mg/kg)
Tmax (male, po, 48 mg/kg): 60 min
half-life (male, po, 48 mg/kg): 31.3 min
AUC(0-t) (male, po, 48 mg/kg, AUC(0-6)): 131 ± 28.3 ng·h/mL
AUC(0-t) (male, po, 48 mg/kg, AUC(0-t)): 131 ± 28.3 ng·h/mL
concentration at 0 h (male, po, 48 mg/kg): 0 ng/mL
concentration at 5 min (male, po, 48 mg/kg): 14.3 ng/mL
concentration at 0.167 h (male, po, 48 mg/kg): 35.7 ng/mL
concentration at 0.333 h (male, po, 48 mg/kg): 14.3 ng/mL
concentration at 0.5 h (male, po, 48 mg/kg): 33.7 ng/mL
concentration at 1 h (male, po, 48 mg/kg): 80.2 ng/mL
concentration at 2 h (male, po, 48 mg/kg): 21.7 ng/mL
concentration at 3 h (male, po, 48 mg/kg): 3 ng/mL
concentration at 6 h (male, po, 48 mg/kg): 0.238 ng/mL
concentration at 24 h (male, po, 48 mg/kg): 0 ng/mL

From patent publication US20200022963A1, “PHARMACEUTICAL COMPOSITION COMPRISING BETAHISTINE” (Otolanum AG, priority 2017, published 2020)
